From US20260217863A1, “ANTIBODY OR PEPTIDE BINDING SPECIFICALLY TO RNASE A, IMMUNOASSAY DEVICE AND METHOD FOR DETECTING RNASE A, AND METHOD FOR COLLECTING RNASE A” (UIF (University Industry Foundation), Yonsei University, priority 2022, published 2026)
Where no end group is shown, it is not given here.

Key:
RNase A [1] = target: T1, RNase A (Bos taurus, UniProt P61823); assay: RNase activity test kit, modified Taq-man RNA probe analysis (ab273299); format: biochemical; set-up: purchased Abcam ab273299; settings: for inhibition at 1 µM: inhibitor 1 μM, after 60 minutes, positive control (no inhibitor) = 100%, read-out: relative inhibition level / reduction of RNase A activity; for RNase A activity reduced by: summary paragraph, peptide 1 μM, versus non-inhibitory condition (100%); for IC50: synthetic peptides, RNA probe kit, linear regression
T1 sequence (P61823 27-150): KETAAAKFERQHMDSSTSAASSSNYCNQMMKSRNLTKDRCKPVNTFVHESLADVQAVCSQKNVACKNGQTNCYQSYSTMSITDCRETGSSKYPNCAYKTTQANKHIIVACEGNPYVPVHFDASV
Experimental: The activity of RNase A, which degrades RNA, was evaluated using specially designed RNA probes. This RNase A analysis was performed using a commercial RNase activity test kit based on a modified Taq-man probe analysis (ab273299) from Abcam (Cambridge, UK). To compare inhibitory activity, three synthetic peptides (peptide-1, peptide-2, peptide-3) and three expressed Fv-antibodies (Fv-1, Fv-2, and Fv-3) were compared using two types of commercially available RNase inhibitors from Biofact™ (Daejeon, South Korea) and two types of RNaseOUT™ from Thermofisher (USA). The probes for the RNase inhibition analysis contained RNA probes with fluorescent dyes and quenching materials at each end of the RNA sequence. […] To estimate the RNase A inhibitory activity by the three synthesized peptides, each peptide was treated at a concentration of 1 μM using the analysis kit, and RNase activity was measured. The positive control was prepared to have an RNase reaction without an inhibitor, and the negative control was prepared to have an RNase reaction without the RNA probe. […] The RNase A inhibitory activity of the three synthesized peptides was analyzed after treating each peptide at a concentration range of 100 μM to 1 μM in the assay kit. […] The RNase A inhibitory activity of the three expressed Fv-antibodies was analyzed after treating each peptide at a concentration range of 100 μM to 1 μM in the analysis kit.
The activity of RNase A, which degrades RNA, was evaluated using specially designed RNA probes. This RNase A analysis was performed using a commercial RNase activity test kit based on a modified Taq-man probe analysis (ab273299) from Abcam (Cambridge, UK). For the comparison of inhibitory activity, three synthetic peptides (Peptide-1, Peptide-2, Peptide-3) and three expressed Fv-antibodies (Fv-1, Fv-2, and Fv-3) were compared using two types of commercially available RNase inhibitors from Biofact™ (Daejeon, South Korea) and two types of RNaseOUT™ from Thermofisher (USA). The probes for the RNase inhibition analysis contain RNA probes with fluorescent dyes and fluorescent quenchers at each end of the RNA nucleotide sequence.
To estimate the RNase A inhibitory activity of the three synthesized peptides, each peptide was treated at a concentration of 1 μM using an assay kit, and the RNase activity was evaluated. The positive control was prepared to have an RNase reaction without the inhibitor, while the negative control was prepared to have an RNase reaction without the RNA probe.
The RNase A inhibitory activity of the three synthesized peptides was analyzed after treating each peptide at a concentration range of 100 μM to 1 μM with the RNase A from the assay kit.

RNase A [2] = target: T1, RNase A; assay: SPR biosensor binding analysis with immobilized RNase A; set-up: Ribonuclease A (Type II-A) from bovine pancreas; purchased Sigma-Aldrich Korea; host or cells: bovine pancreas; species or system bovine; settings: synthetic peptides, 0.37-10 μM; RNase A immobilized on Au chip; read-out: affinity constant (KD)
Experimental: Binding analysis of the expressed FV antibody and synthesized peptides against RNase A was performed using an SPR (Surface Plasmon Resonance) biosensor from I-Cluebio (Seongnam, Korea). RNase A was immobilized on the gold surface of the SPR chip used in the SPR biosensor to conduct the binding analysis. For the manufacture of the SPR chip, a 2 nm thick titanium adhesive layer and a 48 nm thick gold surface were consecutively sputter-coated onto BK-7 glass (1×1 cm^2). […] To analyze the binding of the expressed Fv antibody to RNase A, Fv antibodies in the concentration range of 0.37-100 nM were reacted using PBS buffer as the […] through association (10 minutes), equilibrium (5 minutes), and dissociation (10 minutes) steps. The washing buffer and total SPR measurements were performed at a flow rate of 15 μL/min. For the binding analysis of the synthesized peptides against RNase A, peptides in the concentration range of 0.37-100 nM were reacted using PBS buffer as the washing buffer through association (10 minutes), equilibrium (5 minutes), and dissociation (10 minutes) steps, and total SPR measurements were conducted at a flow rate of 15 μL/min.
Using the screened CDR3 amino acid sequences, the CDR3 regions of the screened Fv antibodies were synthesized as peptides, and the amino acid sequences were determined from the nucleotide sequences of the CDR3 regions as summarized in Table 2. These synthetic peptides (Peptide-1, Peptide-2, Peptide-3) and Fv antibodies (Fv-1, Fv-2, Fv-3) were identical to the amino acid sequences of the CDR3 regions of the screened clones. […] The SPR signal was plotted according to the concentration of the synthetic peptides, and the affinity constants (KD) of these synthetic peptides were calculated through a fitting process. […]
Using the screened CDR3 amino acid sequences, the CDR3 regions of the screened Fv antibodies were synthesized as peptides, and the amino acid sequences were determined from the nucleotide sequences of the CDR3 regions as summarized in Table 7. […]

Row | Sequence | inhibition at 1 µM (RNase A [1]) | RNase A activity reduced by (RNase A [1]) | IC50 (RNase A [1]) | Kd (RNase A [2])
1 | CGPDSDVMTDF [Peptide-1] | 54.4% | 54.4% | 8100 nM | 1300 ± 100 nM
2 | DGTAKKSRKDD [Peptide-3] | 50.3% | 50.3% | 400 nM | 3700 ± 1100 nM
3 | YGPVGRVKRDD [Peptide-2] | 53.2% | 53.2% | 3600 nM | 1300 ± 300 nM
